# According to patent US20230416786A1, “USE OF AMINOQUINOLINE COMPOUNDS FOR HIGHER GENE INTEGRATION” (CELLECTIS SA, priority 2020, published 2023):
# Counter-ions that a name gives are not always drawn. Like-named read-outs stand apart in the source and are kept apart here.
# Legend:
# HSCs = assay: Targeted integration of HLA-E repair template at the B2M locus in HSCs (B2M TALEN + AAV-HLA-E, flow cytometry of HLA-E positive cells); type: cell-based, human
# From the text: (§1) The targeted sequences are […]gctcgcgctactc[…]
# For HSCs, AAV-HLA-E particles was thawed on ice and aliquot to transduce each of the HSC samples at 10^4 viral genome per cell (vg/cell).
# primary T-cells = settings: Example 3, FIG. 3, TRAC TALEN + AAV-CAR-MESO, without chloroquine 29%
# From the text: as §1
compound,measurement,setting,value
"i53: mRNAs encoding i53 (SEQ ID NO. 40), a 53BP1 inhibitor, co-electroporated with B2M TALEN",percentage of HLA-E positive cells,"HSCs; Example 6, FIGS. 6B and 6D, B2M TALEN + 4 μg/million cells mRNAs encoding i53 + AAV-HLA-E, without chloroquine, control 31.5%",39.9%
"CCN(CCO)CCCC(C)Nc1ccnc2cc(Cl)ccc12 (centres unmarked) [hydroxychloroquine, 7-Chloro-4-[4-(N-ethyl-N-b-hydroxyethylamino)-1-methylbutylamino]quinoline sulfate]",percentage of HLA-E positive cells,"HSCs; Example 5, FIG. 5, B2M TALEN + AAV-HLA-E, compound 0.02 mM, without any compound 33.3%",43.4%
"CCN(CC)CCCC(C)Nc1ccnc2cc(Cl)ccc12 (centres unmarked) [chloroquine, N4-(7-chloroquinolin-4-yl)-N1,N1-diethylpentane-1,4-diamine diphosphate]",HLA-E expression (reflects targeted integration at the B2M locus),"HSCs; Example 2, FIG. 2, B2M TALEN with HLA-E repair matrix, chloroquine 0.1 mM, without chloroquine 23.4%",~38%
same,optimum CQ dose for HLA-E positive cells,"HSCs; Example 4, FIG. 4, B2M TALEN + AAV-HLA-E",0.02 nM
same,percentage of HLA-E positive cells,"HSCs; Example 6, FIG. 6E, B2M TALEN + i53 mRNAs (inhibition of 53BP1) + AAV-HLA-E combined with chloroquine 0.02 mM, control 31.5%",63.6%
same,percentage of HLA-E positive cells,"HSCs; Example 6, FIGS. 6B and 6C, B2M TALEN + AAV-HLA-E, without 53BP1 inhibition, chloroquine 0.02 mM, without any compound 31.5%",53.4%
same,CAR positive cells (nuclease-induced targeted integration at TRAC locus),primary T-cells; chloroquine 0.05 mM,35%
same,CAR positive cells (nuclease-induced targeted integration at TRAC locus),primary T-cells; second chloroquine concentration (0.1 mM per first sentence),33.8%
